Assay results published in patent publication US20230391772A1, “METHODS AND COMPOSITIONS FOR TARGETED PROTEIN DEGRADATION” (Ranok Therapeutics (Hangzhou) Co. Ltd., priority 2020, published 2023).
pEC50, pIC50: −log10 of the molar value.

Tests used:
HSP90a protein = molecular target: T1, HSP90a protein (Homo sapiens, UniProt P07900); experiment: HSP90α-binding fluorescent polarization (FP) assay, FITC-geldanamycin probe; details: FP competition with FITC-geldanamycin, 5 nM, 120 min at 25° C.
T1 construct: purchased BPS Bioscience 50298
Protocol: HSP90α-Binding Fluorescent Polarization (FP) Assay
Binding of test compounds to HSP90a protein was measured by fluorescent polarization (FP) using the HSP90a (N-terminal) Assay Kit (BPS Bioscience, #50298), following the manufacturer's instructions, except as noted. Fluorescently labeled HSP90-binding compounds, either the provided FITC-geldanamycin (5 nM final concentration) or RNK04010, a triazolone-based HSP90 binding small molecule labeled with BODIPY through a piperizine-phenyl linker (5 nM final concentration) were employed. A 2.5-fold serial dilution of each test compound ranging from 20 μM to 5.2 nM was assayed for binding to HSP90a. After the final step of adding HSP90a protein to each assay well, plates were mixed by brief shaking, incubated at 25° C. for 120 min for FITC-geldanamycin or 300 min for RNK04010, and fluorescence was measured using a PerkinElmer EnVision Plate Reader.

[1] = system: NCI-H358 human non-small cell lung cancer; experiment: NCI-H358 CCK-8 proliferation assay; format: cell-based; details: NCI-H358 cells, 72 hr
Outline: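 Percent inhibition derived from CCK-8 optical signal, normalised between DMSO-only cells (0%) and cell-free medium containing DMSO as background. Cells: MIA PaCa-2 carrying 2 KRAS(G12C) copies; NCI-H358, NCI-H23 carrying 1 copy apiece. Concentrations spanned 1.02 nM–20 μM in threefold increments.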

Row | Structure (SMILES) | pIC50 (HSP90a protein) | pEC50 [1]
1 | CCC(=O)N1CCN(c2nc(OC[C@@H]3CCN(C(=O)C4CCN(Cc5ccc(-n6c(O)nnc6-c6cc(C(C)C)c(O)cc6O)cc5)CC4)C3)nc3c2CCN(c2cccc4cccc(Cl)c24)C3)C[C@@H]1CC#N [Compound 141, 2-((S)-4-(7-(8-chloronaphthalen-1-yl)-2-(((R)-1-(1-(4-(3-(2,4-dihydroxy-5-isopropylphenyl)-5-hydroxy-4H-1,2,4-triazol-4-yl)benzyl)piperidine-4-carbonyl)pyrrolidin-3-yl)methoxy)-5,6,7,8-tetrahydropyrido[3,4-d]pyrimidin-4-yl)-1-propionylpiperazin-2-yl)acetonitrile] | 6.00 to 7.00 | 6.00 to 7.00
2 | CCC(=O)N1CCN(c2nc(N3CCC(CN4CCN(Cc5ccc(-n6c(O)nnc6-c6cc(CC)c(O)cc6O)cc5)CC4)CC3)nc3c2CCN(c2cccc4cccc(Cl)c24)C3)C[C@@H]1CC#N [Compound 133, (S)-2-(4-(7-(8-chloronaphthalen-1-yl)-2-(4-((4-(4-(3-(5-ethyl-2,4-dihydroxyphenyl)-5-hydroxy-4H-1,2,4-triazol-4-yl)benzyl)piperazin-1-yl)methyl)piperidin-1-yl)-5,6,7,8-tetrahydropyrido[3,4-d]pyrimidin-4-yl)-1-propionylpiperazin-2-yl)acetonitrile, trifluoroacetic acid] | 6.00 to 7.00 | 6.00 to 7.00
3 | CCC(=O)N1CCN(c2nc(NCCC(=O)NCCc3ccc(CN4CCC(Cc5ccc(-n6c(C(=O)NCC(F)(F)F)nnc6-c6cc(C(C)C)c(O)cc6O)cc5)CC4)cc3)nc3c2CCN(c2cc(O)cc4ccccc24)C3)CC1 [Compound 149] | 6.00 to 7.00 | 6.00 to 7.00
4 | CCC(=O)N1CCN(c2nc(OCCC(=O)NCCc3ccc(CN4CCC(Cc5ccc(-n6c(C(=O)NCC(F)(F)F)nnc6-c6cc(C(C)C)c(O)cc6O)cc5)CC4)cc3)nc3c2CCN(c2cc(O)cc4ccccc24)C3)CC1 [Compound 151, 5-(2,4-dihydroxy-5-isopropylphenyl)-4-(4-((1-(4-(2-(3-((7-(3-hydroxynaphthalen-1-yl)-4-(4-propionylpiperazin-1-yl)-5,6,7,8-tetrahydropyrido[3,4-d]pyrimidin-2-yl)oxy)propanamido)ethyl)benzyl)piperidin-4-yl)methyl)phenyl)-N-(2,2,2-trifluoroethyl)-4H-1,2,4-triazole-3-carboxamide] | 6.00 to 7.00 | 6.00 to 7.00
5 | C=C(F)C(=O)N1CCN(c2nc(N3CCC(CN4CCN(Cc5ccc(-n6c(C(=O)NCC(F)(F)F)nnc6-c6cc(CC)c(O)cc6O)cc5)CC4)CC3)nc3c2CCN(c2cccc4cccc(Cl)c24)C3)C[C@@H]1CC#N [Compound 138, (S)-4-(4-((4-((1-(7-(8-chloronaphthalen-1-yl)-4-(3-(cyanomethyl)-4-(2-fluoroacryloyl)piperazin-1-yl)-5,6,7,8-tetrahydropyrido[3,4-d]pyrimidin-2-yl)piperidin-4-yl)methyl)piperazin-1-yl)methyl)phenyl)-5-(5-ethyl-2,4-dihydroxyphenyl)-N-(2,2,2-trifluoroethyl)-4H-1,2,4-triazole-3-carboxamide] | < 6.00 | < 6.00
6 | C=C(F)C(=O)N1CCN(c2nc(OC[C@@H]3CCCN3C(=O)C3CCN(Cc4ccc(-n5c(O)nnc5-c5cc(C(C)C)c(O)cc5O)cc4)CC3)nc3c2CCN(c2cccc4cccc(Cl)c24)C3)C[C@@H]1CC#N [Compound 144, 2-((S)-4-(7-(8-chloronaphthalen-1-yl)-2-(((S)-1-(1-(4-(3-(2,4-dihydroxy-5-isopropylphenyl)-5-hydroxy-4H-1,2,4-triazol-4-yl)benzyl)piperidine-4-carbonyl)pyrrolidin-2-yl)methoxy)-5,6,7,8-tetrahydropyrido[3,4-d]pyrimidin-4-yl)-1-(2-fluoroacryloyl)piperazin-2-yl)acetonitrile] | 6.00 to 7.00 | < 6.00
7 | C=C(F)C(=O)N1CCN(c2nc(N3CCC(CN4CCC(Cc5ccc(-n6c(O)nnc6-c6cc(C(C)C)c(O)cc6O)cc5)CC4)CC3)nc3c2CCN(c2cccc4cccc(Cl)c24)C3)C[C@@H]1CC#N [Compound 137, (S)-2-(4-(7-(8-chloronaphthalen-1-yl)-2-(4-((4-(4-(3-(2,4-dihydroxy-5-isopropylphenyl)-5-hydroxy-4H-1,2,4-triazol-4-yl)benzyl)piperidin-1-yl)methyl)piperidin-1-yl)-5,6,7,8-tetrahydropyrido[3,4-d]pyrimidin-4-yl)-1-(2-fluoroacryloyl)piperazin-2-yl)acetonitrile, acetic acid] | 6.00 to 7.00 | 6.00 to 7.00
8 | CC(C)c1cc(-c2nnc(O)n2-c2ccc(CN3CCN(C4CCN(c5nc6c(c(N7CCN(C(=O)C(F)(F)F)[C@@H](CC#N)C7)n5)CCN(c5cccc7cccc(Cl)c57)C6)CC4)CC3)cc2)c(O)cc1O [Compound 136, (S)-2-(4-(7-(8-chloronaphthalen-1-yl)-2-(4-(4-(4-(3-(2,4-dihydroxy-5-isopropylphenyl)-5-hydroxy-4H-1,2,4-triazol-4-yl)benzyl)piperazin-1-yl)piperidin-1-yl)-5,6,7,8-tetrahydropyrido[3,4-d]pyrimidin-4-yl)-1-(2,2,2-trifluoroacetyl)piperazin-2-yl)acetonitrile] | < 6.00 | 6.00 to 7.00
9 | C=C(F)C(=O)N1CCN(c2nc(N3CCC(Cc4ccc(-n5c(C(=O)NCC(F)(F)F)nnc5-c5cc(C(C)C)c(O)cc5O)cc4)CC3)nc3c2CCN(c2cccc4cccc(Cl)c24)C3)C[C@@H]1CC#N [Compound 142, (S)-4-(4-((1-(7-(8-chloronaphthalen-1-yl)-4-(3-(cyanomethyl)-4-(2-fluoroacryloyl)piperazin-1-yl)-5,6,7,8-tetrahydropyrido[3,4-d]pyrimidin-2-yl)piperidin-4-yl)methyl)phenyl)-5-(2,4-dihydroxy-5-isopropylphenyl)-N-(2,2,2-trifluoroethyl)-4H-1,2,4-triazole-3-carboxamide] | < 6.00 | < 6.00
10 | CCC(=O)N1CCN(c2nc(OC[C@@H]3CCN3C(=O)C3CCN(Cc4ccc(-n5c(O)nnc5-c5cc(C(C)C)c(O)cc5O)cc4)CC3)nc3c2CCN(c2cccc4cccc(Cl)c24)C3)C[C@@H]1CC#N [Compound 152, 2-((S)-4-(7-(8-chloronaphthalen-1-yl)-2-(((S)-1-(1-(4-(3-(2,4-dihydroxy-5-isopropylphenyl)-5-hydroxy-4H-1,2,4-triazol-4-yl)benzyl)piperidine-4-carbonyl)azetidin-2-yl)methoxy)-5,6,7,8-tetrahydropyrido[3,4-d]pyrimidin-4-yl)-1-propionylpiperazin-2-yl)acetonitrile, trifluoroacetic acid] | > 7.00 | < 6.00
11 | CCC(=O)N1CCN(c2nc(OCC3CN(C(=O)C4CCN(Cc5ccc(-n6c(O)nnc6-c6cc(C(C)C)c(O)cc6O)cc5)CC4)C3)nc3c2CCN(c2cccc4cccc(Cl)c24)C3)C[C@@H]1CC#N [Compound 146, (S)-2-(4-(7-(8-chloronaphthalen-1-yl)-2-((1-(1-(4-(3-(2,4-dihydroxy-5-isopropylphenyl)-5-hydroxy-4H-1,2,4-triazol-4-yl)benzyl)piperidine-4-carbonyl)azetidin-3-yl)methoxy)-5,6,7,8-tetrahydropyrido[3,4-d]pyrimidin-4-yl)-1-propionylpiperazin-2-yl)acetonitrile] | 6.00 to 7.00 | 6.00 to 7.00
